Results from article PMC6009956, “Design, synthesis and biological activity of N^4-phenylsubstituted-7H-pyrrolo[2,3-d]pyrimidin-4-amines as dual inhibitors of aurora kinase A and epidermal growth factor receptor kinase” (Journal of Enzyme Inhibition and Medicinal Chemistry, 2017).
Like-named read-outs stand apart in the source and are kept apart here.

Legend:
[1] = tested on: p-HH3 in FADU and SAS SCCHN cell lines; test: Western blot of p-HH3 in FADU and SAS cells; format: cell-based; settings: 10 nM
Procedure: Protein extracts (50 μg per lane) were electrophoretically separated on SDS-PAGE gels, transferred to membranes (Protran, Schleicher & Schuell, Dassel, Germany) and blotted with specific antibodies (actin, aurora A, aurora B: all from Sigma, Munich, Germany; S10-HH3: Millipore, Schwalbach, Germany; EGFR: Santa Cruz, Heidelberg, Germany; pEGFR: Invitrogen, Darmstadt, Germany; pAKT, pERK: both from New England Biolabs, Frankfurt, Germany).
Figure 4. Effects of compound 2 on EGFR and aurora kinases in growing SCCHN cell lines (A) Western blot analysis of EGFR (pEGFR, pERK, p-AKT) and aurora A (p-HH3) downstream target proteins following incubation with 100 μM compound 2 for the indicated time points in BHY and FADU SCCHN cell lines. (B) BHY and CAL cell lines treated for the indicated time points with 200 nM cetuximab. Western blot analysis of EGFR downstream targets. (long exposure and short exposure). […] Western blot analysis of p-HH3 at the indicated time points. Asterisk (*) represents unspecific band.

aurora A kinase (AURKA) = biological target: T1, aurora A kinase (AURKA) (Homo sapiens, UniProt O14965); test: ADP-Glo kinase assay, Aurora A; format: biochemical
T1 construct: purchased BPS Bioscience (assay run externally by the vendor)
T1 sequence (O14965 1-403): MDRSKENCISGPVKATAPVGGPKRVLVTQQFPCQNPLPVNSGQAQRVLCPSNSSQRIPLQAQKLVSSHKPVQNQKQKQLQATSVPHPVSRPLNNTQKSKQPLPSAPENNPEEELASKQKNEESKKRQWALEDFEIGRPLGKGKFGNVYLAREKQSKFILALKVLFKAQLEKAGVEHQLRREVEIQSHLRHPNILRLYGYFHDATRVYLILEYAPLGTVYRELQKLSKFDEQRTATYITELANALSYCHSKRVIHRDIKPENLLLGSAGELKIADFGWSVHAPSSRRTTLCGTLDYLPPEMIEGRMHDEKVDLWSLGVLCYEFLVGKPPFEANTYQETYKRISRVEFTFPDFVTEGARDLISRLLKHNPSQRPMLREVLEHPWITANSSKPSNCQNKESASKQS

EGFR = EGFR (Homo sapiens, UniProt P00533); test: ADP-Glo kinase assay, EGFR; format: biochemical; design: purchased BPS Bioscience (assay run externally by the vendor)
EGFR, sequence (P00533 25-1210): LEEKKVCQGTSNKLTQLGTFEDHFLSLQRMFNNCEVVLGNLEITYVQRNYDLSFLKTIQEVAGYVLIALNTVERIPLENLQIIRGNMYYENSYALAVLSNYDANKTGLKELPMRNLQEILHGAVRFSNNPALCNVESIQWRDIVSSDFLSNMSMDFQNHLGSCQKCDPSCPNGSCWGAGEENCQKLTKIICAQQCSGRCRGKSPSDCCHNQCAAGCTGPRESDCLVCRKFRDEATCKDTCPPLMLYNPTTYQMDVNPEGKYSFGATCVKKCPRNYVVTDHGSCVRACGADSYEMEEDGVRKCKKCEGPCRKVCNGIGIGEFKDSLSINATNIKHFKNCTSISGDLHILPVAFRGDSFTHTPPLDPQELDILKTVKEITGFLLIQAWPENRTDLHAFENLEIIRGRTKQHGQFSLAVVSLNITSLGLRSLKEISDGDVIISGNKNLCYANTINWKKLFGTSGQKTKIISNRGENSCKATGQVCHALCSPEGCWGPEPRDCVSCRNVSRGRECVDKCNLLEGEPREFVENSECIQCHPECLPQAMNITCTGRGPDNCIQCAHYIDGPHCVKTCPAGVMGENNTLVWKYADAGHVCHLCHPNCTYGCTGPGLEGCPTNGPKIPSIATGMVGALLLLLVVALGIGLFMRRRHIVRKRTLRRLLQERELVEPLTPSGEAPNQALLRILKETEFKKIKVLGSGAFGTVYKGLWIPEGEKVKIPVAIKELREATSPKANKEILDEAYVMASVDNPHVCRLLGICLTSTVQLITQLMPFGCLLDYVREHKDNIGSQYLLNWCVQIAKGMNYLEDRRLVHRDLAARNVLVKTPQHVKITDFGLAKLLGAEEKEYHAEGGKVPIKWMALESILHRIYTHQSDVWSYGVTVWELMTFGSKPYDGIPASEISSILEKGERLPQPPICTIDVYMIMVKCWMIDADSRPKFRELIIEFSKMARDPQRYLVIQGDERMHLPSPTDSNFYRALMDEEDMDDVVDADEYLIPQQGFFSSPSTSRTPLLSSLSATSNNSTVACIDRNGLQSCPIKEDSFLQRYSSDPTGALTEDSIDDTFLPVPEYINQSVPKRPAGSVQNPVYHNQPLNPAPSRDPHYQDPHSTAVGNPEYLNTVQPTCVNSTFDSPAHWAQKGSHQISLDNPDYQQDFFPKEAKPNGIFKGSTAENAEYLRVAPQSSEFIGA

COc1cc(Nc2ncc3c(n2)-c2ccc(Cl)cc2C(c2c(F)cccc2OC)=NC3)ccc1C(=O)O [MLN8237]
Histone H3 phosphorylation (p-HH3) [1]: inhibition of histone H3 phosphorylation

c1ccc(Cc2ccc(Nc3ncnc4[nH]ccc34)cc2)cc1 [Compound 18, N^4-(4-benzylphenyl)-7H-pyrrolo[2,3-d]pyrimidin-4-amine]
Fold better than compound 17 against AURKA (aurora A kinase (AURKA)): approximately two-fold | IC50 (aurora A kinase (AURKA); 10 µM ATP, triplicate, read-out: AURKA IC50 ± SD): 4.95 ± 0.69 µM | IC50 (aurora A kinase (AURKA); 10 µM ATP/0.2 mg/ml Kemptide, read-out: Aurora A IC50 (dose-response curve, supplement)): 5 µM | Aurora A % Activity Set1 (aurora A kinase (AURKA); Log[nM] 0): 110% | Aurora A % Activity Set2 (aurora A kinase (AURKA); Log[nM] 0): 93% | Aurora A % Activity Set3 (aurora A kinase (AURKA); Log[nM] 0): 104% | Aurora A % Activity Set1 (aurora A kinase (AURKA); Log[nM] 1.0): 103% | Aurora A % Activity Set2 (aurora A kinase (AURKA); Log[nM] 1.0): 93% | Aurora A % Activity Set3 (aurora A kinase (AURKA); Log[nM] 1.0): 101% | Aurora A % Activity Set1 (aurora A kinase (AURKA); Log[nM] 1.5): 105% | Aurora A % Activity Set2 (aurora A kinase (AURKA); Log[nM] 1.5): 96% | Aurora A % Activity Set3 (aurora A kinase (AURKA); Log[nM] 1.5): 105% | Aurora A % Activity Set1 (aurora A kinase (AURKA); Log[nM] 2.0): 103% | Aurora A % Activity Set2 (aurora A kinase (AURKA); Log[nM] 2.0): 93% | Aurora A % Activity Set3 (aurora A kinase (AURKA); Log[nM] 2.0): 100% | Aurora A % Activity Set1 (aurora A kinase (AURKA); Log[nM] 2.5): 90% | Aurora A % Activity Set2 (aurora A kinase (AURKA); Log[nM] 2.5): 86% | Aurora A % Activity Set3 (aurora A kinase (AURKA); Log[nM] 2.5): 93% | Aurora A % Activity Set1 (aurora A kinase (AURKA); Log[nM] 3.0): 77% | Aurora A % Activity Set2 (aurora A kinase (AURKA); Log[nM] 3.0): 73% | Aurora A % Activity Set3 (aurora A kinase (AURKA); Log[nM] 3.0): 85% | Aurora A % Activity Set1 (aurora A kinase (AURKA); Log[nM] 3.5): 51% | Aurora A % Activity Set2 (aurora A kinase (AURKA); Log[nM] 3.5): 45% | Aurora A % Activity Set3 (aurora A kinase (AURKA); Log[nM] 3.5): 47% | Aurora A % Activity Set1 (aurora A kinase (AURKA); Log[nM] 4.0): 32% | Aurora A % Activity Set2 (aurora A kinase (AURKA); Log[nM] 4.0): 30% | Aurora A % Activity Set3 (aurora A kinase (AURKA); Log[nM] 4.0): 31% | Aurora A % Activity Set1 (aurora A kinase (AURKA); Log[nM] 4.5): 29% | Aurora A % Activity Set2 (aurora A kinase (AURKA); Log[nM] 4.5): 26% | Aurora A % Activity Set3 (aurora A kinase (AURKA); Log[nM] 4.5): 26% | Aurora A % Activity Set1 (aurora A kinase (AURKA); Log[nM] 5.0): 30% | Aurora A % Activity Set2 (aurora A kinase (AURKA); Log[nM] 5.0): 26% | Aurora A % Activity Set3 (aurora A kinase (AURKA); Log[nM] 5.0): 26% | IC50 (EGFR; 10 µM ATP, triplicate, read-out: EGFR IC50 ± SD): 0.0633 ± 0.00458 µM | IC50 (EGFR; 10 µM ATP/0.2 mg/ml Poly-Glu-Tyr, read-out: EGFR IC50 (dose-response curve, supplement)): 0.0633 µM | EGFR % Activity Set1 (EGFR; Log[nM] 0): 96% | EGFR % Activity Set2 (EGFR; Log[nM] 0): 92% | EGFR % Activity Set3 (EGFR; Log[nM] 0): 95% | EGFR % Activity Set1 (EGFR; Log[nM] 1.0): 88% | EGFR % Activity Set2 (EGFR; Log[nM] 1.0): 83% | EGFR % Activity Set3 (EGFR; Log[nM] 1.0): 88% | EGFR % Activity Set1 (EGFR; Log[nM] 1.5): 66% | EGFR % Activity Set2 (EGFR; Log[nM] 1.5): 62% | EGFR % Activity Set3 (EGFR; Log[nM] 1.5): 65% | EGFR % Activity Set1 (EGFR; Log[nM] 2.0): 42% | EGFR % Activity Set2 (EGFR; Log[nM] 2.0): 38% | EGFR % Activity Set3 (EGFR; Log[nM] 2.0): 43% | EGFR % Activity Set1 (EGFR; Log[nM] 2.5): 16% | EGFR % Activity Set2 (EGFR; Log[nM] 2.5): 16% | EGFR % Activity Set3 (EGFR; Log[nM] 2.5): 16% | EGFR % Activity Set1 (EGFR; Log[nM] 3.0): 8% | EGFR % Activity Set2 (EGFR; Log[nM] 3.0): 8% | EGFR % Activity Set3 (EGFR; Log[nM] 3.0): 9% | EGFR % Activity Set1 (EGFR; Log[nM] 3.5): 3% | EGFR % Activity Set2 (EGFR; Log[nM] 3.5): 3% | EGFR % Activity Set3 (EGFR; Log[nM] 3.5): 3% | EGFR % Activity Set1 (EGFR; Log[nM] 4.0): 2% | EGFR % Activity Set2 (EGFR; Log[nM] 4.0): 2% | EGFR % Activity Set3 (EGFR; Log[nM] 4.0): 2% | EGFR % Activity Set1 (EGFR; Log[nM] 4.5): 2% | EGFR % Activity Set2 (EGFR; Log[nM] 4.5): 2% | EGFR % Activity Set3 (EGFR; Log[nM] 4.5): 2% | EGFR % Activity Set1 (EGFR; Log[nM] 5.0): 2% | EGFR % Activity Set2 (EGFR; Log[nM] 5.0): 3% | EGFR % Activity Set3 (EGFR; Log[nM] 5.0): 2%
